The text below walks through data of patent publication US20240109893A1, “PREPARATION AND APPLICATION METHOD OF HETEROCYCLIC COMPOUNDS AS KRAS INHIBITOR” (SHANGHAI KECHOW PHARMA, INC., priority 2020, published 2024).

This test has as its system H358 cells. Put plainly: Cell activity experiment: activity test of H358 cells (MTT, 5 days). Type of test: cell-based. The note with it: Homo sapiens, NCI-H358, 120 h, 5 days incubation, absorbance 492 nm. A digest of the protocol: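 Viability was read by MTT: 4 h dye incubation, DMSO solubilisation, absorbance at 492 nm. This followed 5 days' treatment (37° C., 5% CO2) of H358 cells, pre-grown 24 h, with eight-point 3-fold dilutions up to 10000 nM final, 0.5% DMSO final, triplicate wells.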

As usually defined, the IC50 is the midpoint of a concentration-inhibition curve. A low value points to greater potency in that assay. In the case of `C=CC(=O)N1CCN(c2nc(OCC34CCCN3CCC4)nc3c(F)c(-c4cncc5cccc(Cl)c45)ccc23)C[C@@H]1CC#N` [Example 162, (S)-2-(1-acryloyl-4-(7-(5-chloroisoquinolin-4-yl)-8-fluoro-2-((tetrahydro-1H-pyrrolizin-7a(5H)-yl)methoxy)quinazolin-4-yl)piperazin-2-yl)acetonitrile], 2 nM corresponded to half-maximal inhibition (IC50). As for `C=C(F)C(=O)N1CCN(c2nc(OCC34CCCN3CCC4)nc3c(F)c(-c4cncc5cccc(Cl)c45)ccc23)C[C@@H]1CC#N` [Example 163, (S)-2-(4-(7-(5-chloroisoquinolin-4-yl)-8-fluoro-2-((tetrahydro-1H-pyrrolizin-7a(5H)-yl)methoxy)quinazolin-4-yl)-1-(2-fluoroacryloyl)piperazin-2-yl)acetonitrile], the figure is 5 nM; as for `C=CC(=O)N1CCN(c2nc(OCC34CCCN3C[C@H](F)C4)nc3c(F)c(-c4cncc5cccc(Cl)c45)ccc23)C[C@@H]1CC#N` (stereo partly drawn) [Example 164, 2-((2S)-1-acryloyl-4-(7-(5-chloroisoquinolin-4-yl)-8-fluoro-2-((((2R,7aS)-2-fluorotetrahydro-1H-pyrrolizin-7a(5H))-yl)methoxy)quinazolin-4-yl)piperazin-2-yl)acetonitrile], 1.5 nM. Under `C=C(F)C(=O)N1CCN(c2nc(OC[C@@]34CCCN3C[C@H](F)C4)nc3c(F)c(-c4cncc5cccc(Cl)c45)ccc23)C[C@@H]1CC#N` [Example 165] stands 4 nM; under `C=CC(=O)N1CCN(c2nc(OCC34CCCN3CCC4)nc3nc(-c4cccc5cccc(Cl)c45)ccc23)C[C@@H]1CC#N` [Example 258, (S)-2-(1-acryloyl-4-(7-(8-chloronaphthalen-1-yl)-2-((tetrahydro-1H-pyrrolizin-7a(5H)-yl)methoxy)pyridino[2,3-d]pyrimidin-4-yl)piperazin-2-yl)acetonitrile], 15 nM.

On to `C=C(F)C(=O)N1CCN(c2nc(OCC34CCCN3CCC4)nc3nc(-c4cccc5cccc(Cl)c45)ccc23)C[C@@H]1CC#N` [Example 259, (S)-2-(4-(7-(8-chloronaphthalen-1-yl)-2-((tetrahydro-1H-pyrrolizin-7a(5H)-yl)methoxy)pyridino[2,3-d]pyrimidin-4-yl)-1-(2-fluoroacryloyl)piperazin-2-yl)acetonitrile], for which 31 nM corresponded to half-maximal inhibition (IC50).

With `C=CC(=O)N1CCN(c2nc(OC[C@@]34CCCN3C[C@H](F)C4)nc3nc(-c4cccc5cccc(Cl)c45)ccc23)C[C@@H]1CC#N` [Example 260], the IC50 was determined as 10 nM.

`C=C(F)C(=O)N1CCN(c2nc(OC[C@@]34CCCN3C[C@H](F)C4)nc3nc(-c4cccc5cccc(Cl)c45)ccc23)C[C@@H]1CC#N` [Example 261] displayed an IC50 of 24 nM. As for `C=CC(=O)N1CCN(c2nc(OC[C@@H]3CCCN3C)nc3c(F)c(-c4cccc5ccc(F)c(Cl)c45)ccc23)C[C@@H]1CC#N` [Example 359, 2-((S)-1-acryloyl-4-(7-(8-chloro-7-fluoronaphthalen-1-yl)-8-fluoro-2-(((S)-1-methylpyrrolidin-2-yl)methoxy)quinazolin-4-yl)piperazin-2-yl)acetonitrile], the figure is 3 nM; as for `C=CC(=O)N1CCN(c2nc(OC[C@@H]3C[C@@H](F)CN3C)nc3c(F)c(-c4cccc5c4CCCC5)ccc23)C[C@@H]1CC#N` [Example 360], 10 nM; as for `C=CC(=O)N1CCN(c2nc(OC[C@@H]3C[C@@H](F)CN3C)nc3c(F)c(-c4cccc5cccc(Cl)c45)ccc23)C[C@@H]1CC#N` [Example 361], 5 nM. Under `C=CC(=O)N1CCN(c2nc(OC[C@@H]3C[C@@H](F)CN3C)nc3c(F)c(-c4cccc5ccc(F)c(Cl)c45)ccc23)C[C@@H]1CC#N` [Example 362] stands 4.6 nM; under `C=CC(=O)N1CCN(c2nc(OCC34CCCN3CCC4)nc3c(F)c(-c4cccc5c4CCCC5)ccc23)C[C@@H]1CC#N` [Example 363, (S)-2-(1-acryloyl-4-(8-fluoro-2-((tetrahydro-1H-pyrrolizin-7a(5H)-yl)methoxy)-7-(5,6,7,8-tetrahydronaphthalene)-1-yl)quinazolin-4-ylpiperazin-2-yl)acetonitrile], 5 nM; under `C=CC(=O)N1CCN(c2nc(OCC34CCCN3CCC4)nc3c(F)c(-c4cccc5cccc(Cl)c45)ccc23)C[C@@H]1CC#N` [Example 364, (S)-2-(1-acryloyl-4-(7-(8-chloronaphthalen-1-yl)-8-fluoro-2-((tetrahydro-1H-pyrrolizin-7a(5H)-yl)methoxy)quinazolin-4-yl)piperazin-2-yl)acetonitrile], 2 nM.

`C=CC(=O)N1CCN(c2nc(OCC34CCCN3CCC4)nc3c(F)c(-c4cccc5ccc(F)c(Cl)c45)ccc23)C[C@@H]1CC#N` [Example 365, (S)-2-(1-acryloyl-4-(7-(8-chloro-7-fluoronaphthalen-1-yl)-8-fluoro-2-((tetrahydro-1H-pyrrolizin-7a(5H)-yl)methoxy)quinazolin-4-yl)piperazin-2-yl)acetonitrile]: inhibition was half-maximal at 2 nM (IC50).

As to `C=CC(=O)N1CCN(c2nc(OC[C@@]34CCCN3C[C@H](F)C4)nc3c(F)c(-c4cccc5c4CCCC5)ccc23)C[C@@H]1CC#N` [Example 366], the IC50 amounted to 3 nM. `C=CC(=O)N1CCN(c2nc(OC[C@@]34CCCN3C[C@H](F)C4)nc3c(F)c(-c4cccc5ccc(F)c(Cl)c45)ccc23)C[C@@H]1CC#N` [Example 368] gave an IC50 of 0.11 nM. `C=CC(=O)N1CCC2[C@H]1CN2c1nc(OC[C@@H]2CCCN2C)nc2c(F)c(-c3cccc4c3CCCC4)ccc12` (stereo partly drawn) [Example 369] registered an IC50 of 20 nM.

The molecule `C=CC(=O)N1CC[C@H]2[C@H]1CN2c1nc(OC[C@@H]2CCCN2C)nc2c(F)c(-c3cccc4cccc(Cl)c34)ccc12` [Example 370, 1-((1R,5S)-6-(7-(8-chloronaphthalen-1-yl)-8-fluoro-2-(((S)-1-methylpyrrolidin-2-yl)methoxy)quinazolin-4-yl)-2,6-diazabicyclo[3.2.0]hept-2-yl)prop-2-en-1-one] registered an IC50 of 10 nM. This IC50 lies about 2-fold lower than the previous one.

With `C=CC(=O)N1CCC2[C@H]1CN2c1nc(OC[C@@H]2CCCN2C)nc2c(F)c(-c3cccc4ccc(F)c(Cl)c34)ccc12` (stereo partly drawn) [Example 371], inhibition was half-maximal at 6 nM (IC50).

`C=CC(=O)N1CCC2[C@H]1CN2c1nc(OCC23CCCN2CCC3)nc2c(F)c(-c3cccc4c3CCCC4)ccc12` (stereo partly drawn) [Example 372] gave an IC50 of 5 nM. `C=CC(=O)N1CCN(c2nc(OC[C@@H]3CCCN3C)nc3cc(-c4cccc5cccc(Cl)c45)c(F)cc23)C[C@@H]1CC#N` [Example 394, 2-((S)-1-acryloyl-4-(6-fluoro-7-(8-chloronaphthalen-1-yl)-2-(((S)-1-methylpyrrolidin-2-yl)methoxy)quinazolin-4-yl)piperazin-2-yl)acetonitrile] registered an IC50 of 158 nM. This IC50 lies about 32-fold higher than the previous one. In turn, `C=CC(=O)N1CCN(c2nc(OC[C@@H]3CCCN3C)nc3c(F)c(-c4cccc5c4CCCC5)c(F)cc23)C[C@@H]1CC#N` [Example 429] displayed an IC50 of 15 nM. For `C=CC(=O)N1CCN(c2nc(OC[C@@H]3CCCN3C)nc3c(F)c(-c4cccc5cccc(Cl)c45)c(F)cc23)C[C@@H]1CC#N` [Example 430, 2-((S)-1-acryloyl-4-(6,8-difluoro-7-(8-chloronaphthalen-1-yl)-2-(((S)-1-methylpyrrolidin-2-yl)methoxy)quinazolin-4-yl)piperazin-2-yl)acetonitrile], half-maximal inhibition (IC50) required 140 nM.
